Reference: US20130289070A1, “Use of Levocabastine for Modulating Generation of Pro-Inflammatory Cytokines” (Bausch & Lomb Incorporated, priority 2007, published 2013)

Test system: EoL-1 (human eosinophilic leukaemia cell line) cells
Experiment: TNF-α-induced cytokine release, EoL-1 cells differentiated with PMA (Luminex)
Assay type: cell-based
Set-up: key to IL-1α (PMA), p of decrement / IL-1β (PMA), p of decrement / IL-1ra (PMA), p of decrement / IL-5 (PMA), p of decrement / IL-7 (PMA), p of decrement / IL-8 (PMA), p of decrement / IP-10 (PMA), p of decrement / MCP-1 (PMA), p of decrement / MIP-1β (PMA), p of decrement / RANTES (PMA), p of decrement / VEGF (PMA), p of decrement / Fractalkine (PMA), p of decrement / MIP-1α (PMA), p of decrement: ns = non significant
Experimental: EoL-1 (human eosinophilic leukaemia cell line) cells (Saito et al., 1985; Mayumi, 1992) were maintained in RPMI-1640 medium with L-glutamine supplemented with 10% (v/v) FBS at 37° C. in a humidified atmosphere with 5% CO2. Where indicated, 24 h before the experiment 25 ng/mL PMA ((phorbol 12-myristate 13-acetate, purchased from Sigma Aldrich) was added to the medium to induce eosinophil granulation and differentiation (Ohtsu et al., 1993; Zimmermann et al., 2000).
Half-million cells were aliquoted per point in a 24 well plate; each experiment was performed in triplicate and carried out in parallel with eosinophils differentiated and non differentiated with PMA (25 ng/mL, 24 h). Cells were suspended in low serum medium (RPMI-1640, 0.1% (v/v) FBS). TNF-α was used to induce cytokine secretion as previously described by Steube et al. (2000), and the net release was obtained by comparison to the basal (non-TNF-α treated). In the first experiment we evaluated the concentration and time relation between TNF-α stimulation and cytokine release. Therefore, 5, 10, and 25 ng/mL of TNF-α was administered to the cells at 0, ½, 1, 2, 3, 6, 12 and 24 h (data not shown). An aliquot of 150 μL of supernate was collected for cytokines' analysis. […] Differentiated and non-differentiated EoL-1 cells were exposed from 0.1 to 2.3 mM levocabastine ([…]Levocabastine 0.05% solution eye drops containing cyclodextrins, without benzalkonium chloride), and aliquots of the supernates were collected after 12 and 24 h. The content of cytokines at time zero was estimated by treating the cells with 400 nM calcimycin (A-23187), which is a cytolytic agent that frees all the mediators from the cytoplasmic compartment. In addition, for each experiment we tested the effect of the vehicle, which was added to the wells in a concentration equal to the maximum amount used for drug dilution.
Samples (supernates 12 and 24 h) in triplicate were analyzed using Luminex 200™ (Luminex, Austin, Tex.) and Beadview software v1.0 (Upstate Cell Signaling Solutions, Temecula, Calif.).
All data are presented as mean±SEM for the indicated number of experiments. Statistical significance was determined by Newman-Keuls test after ANOVA using GraphPad Prism (version 3.0; GraphPad Software Inc., San Diego, Calif., USA). P-values<0.05 were considered to be significant.

[1] = 12 h, TNF-α 5 ng + Levocabastine 2 mM vs TNF-α
[2] = 12 h, TNF-α 10 ng + Levocabastine 2 mM vs TNF-α
[3] = 12 h, TNF-α 20 ng + Levocabastine 2 mM vs TNF-α
[4] = 12 h, TNF-α 5, 10, 20 ng + Levocabastine 2 mM vs TNF-α
[5] = 24 h, FN + Levocabastine 2 mM vs FN
[6] = 24 h, Levocabastine 2 mM vs TNF-α

C[C@@H]1CN([C@H]2CC[C@](C#N)(c3ccc(F)cc3)CC2)CC[C@]1(C(=O)O)c1ccccc1 [Levocabastine, levocabastine]
release of IL-8 induced by TNF-α (2 mM, TNF-α 5, 10 and 20 ng, 24 h, differentiated with PMA (FIG. 9)): capable of reducing the release | release of IL-1-ra induced by TNF-α (0.1, 0.5 and 1.0 mM, 12 h, differentiated with PMA (FIG. 2)): capable to prevent the release | release of IL-1β induced by TNF-α (0.1, 0.5 and 1.0 mM, 12 h, differentiated with PMA (FIG. 3)): capable to prevent the release | Fractalkine (PMA), p of decrement [1]: ns | G-CSF (PMA), p of decrement [1]: ns | GM-CSF (PMA), p of decrement [1]: ns | IL-1β (PMA), p of decrement [1]: ns | IL-5 (PMA), p of decrement [1]: ns | IL-6 (PMA), p of decrement [1]: ns | IL-7 (PMA), p of decrement [1]: ns | IL-8 (PMA), p of decrement [1]: ns | IL-10 (PMA), p of decrement [1]: ns | IL-12p40 (PMA), p of decrement [1]: P < 0.001 | IP-10 (PMA), p of decrement [1]: ns | MCP-1 (PMA), p of decrement [1]: ns | MIP-1α (PMA), p of decrement [1]: ns | TGF-α (PMA), p of decrement [1]: ns | VEGF (PMA), p of decrement [1]: P < 0.01 | Fractalkine (PMA), p of decrement [2]: ns | G-CSF (PMA), p of decrement [2]: ns | GM-CSF (PMA), p of decrement [2]: ns | IL-1β (PMA), p of decrement [2]: ns | IL-5 (PMA), p of decrement [2]: ns | IL-6 (PMA), p of decrement [2]: ns | IL-7 (PMA), p of decrement [2]: ns | IL-8 (PMA), p of decrement [2]: ns | IL-10 (PMA), p of decrement [2]: ns | IL-12p40 (PMA), p of decrement [2]: P < 0.001 | IP-10 (PMA), p of decrement [2]: ns | MCP-1 (PMA), p of decrement [2]: ns | MIP-1α (PMA), p of decrement [2]: ns | TGF-α (PMA), p of decrement [2]: ns | VEGF (PMA), p of decrement [2]: ns | Fractalkine (PMA), p of decrement [3]: ns | G-CSF (PMA), p of decrement [3]: ns | GM-CSF (PMA), p of decrement [3]: ns | IL-1β (PMA), p of decrement [3]: ns | IL-5 (PMA), p of decrement [3]: ns | IL-6 (PMA), p of decrement [3]: ns | IL-7 (PMA), p of decrement [3]: ns | IL-8 (PMA), p of decrement [3]: ns | IL-10 (PMA), p of decrement [3]: ns | IL-12p40 (PMA), p of decrement [3]: P < 0.001 | IP-10 (PMA), p of decrement [3]: ns | MCP-1 (PMA), p of decrement [3]: ns | MIP-1α (PMA), p of decrement [3]: ns | TGF-α (PMA), p of decrement [3]: ns | VEGF (PMA), p of decrement [3]: ns | IL-1ra (PMA), p of decrement [4]: increase of cytokine secretion | IL-1α (PMA), p of decrement [4]: increase of cytokine secretion | MIP-1β (PMA), p of decrement [4]: increase of cytokine secretion | RANTES (PMA), p of decrement [4]: increase of cytokine secretion | Fractalkine (PMA), p of decrement (12 h, TNF-α vs Lev 0.1 mM): ns | IL-1ra (PMA), p of decrement (12 h, TNF-α vs Lev 0.1 mM): p < 0.01 | IL-1α (PMA), p of decrement (12 h, TNF-α vs Lev 0.1 mM): ns | IL-1β (PMA), p of decrement (12 h, TNF-α vs Lev 0.1 mM): ns | IL-5 (PMA), p of decrement (12 h, TNF-α vs Lev 0.1 mM): ns | IL-7 (PMA), p of decrement (12 h, TNF-α vs Lev 0.1 mM): ns | IL-8 (PMA), p of decrement (12 h, TNF-α vs Lev 0.1 mM): ns | IP-10 (PMA), p of decrement (12 h, TNF-α vs Lev 0.1 mM): ns | MCP-1 (PMA), p of decrement (12 h, TNF-α vs Lev 0.1 mM): ns | MIP-1β (PMA), p of decrement (12 h, TNF-α vs Lev 0.1 mM): ns | RANTES (PMA), p of decrement (12 h, TNF-α vs Lev 0.1 mM): ns | VEGF (PMA), p of decrement (12 h, TNF-α vs Lev 0.1 mM): ns | Fractalkine (PMA), p of decrement (12 h, TNF-α vs Lev 0.5 mM): ns | IL-1ra (PMA), p of decrement (12 h, TNF-α vs Lev 0.5 mM): p < 0.001 | IL-1α (PMA), p of decrement (12 h, TNF-α vs Lev 0.5 mM): ns | IL-1β (PMA), p of decrement (12 h, TNF-α vs Lev 0.5 mM): ns | IL-5 (PMA), p of decrement (12 h, TNF-α vs Lev 0.5 mM): ns | IL-7 (PMA), p of decrement (12 h, TNF-α vs Lev 0.5 mM): ns | IL-8 (PMA), p of decrement (12 h, TNF-α vs Lev 0.5 mM): ns | IP-10 (PMA), p of decrement (12 h, TNF-α vs Lev 0.5 mM): p < 0.01 | MCP-1 (PMA), p of decrement (12 h, TNF-α vs Lev 0.5 mM): ns | MIP-1β (PMA), p of decrement (12 h, TNF-α vs Lev 0.5 mM): ns | RANTES (PMA), p of decrement (12 h, TNF-α vs Lev 0.5 mM): ns | VEGF (PMA), p of decrement (12 h, TNF-α vs Lev 0.5 mM): ns | Fractalkine (PMA), p of decrement (12 h, TNF-α vs Lev 1.0 mM): ns | IL-1ra (PMA), p of decrement (12 h, TNF-α vs Lev 1.0 mM): p < 0.001 | IL-1α (PMA), p of decrement (12 h, TNF-α vs Lev 1.0 mM): ns | IL-1β (PMA), p of decrement (12 h, TNF-α vs Lev 1.0 mM): ns | IL-5 (PMA), p of decrement (12 h, TNF-α vs Lev 1.0 mM): ns | IL-7 (PMA), p of decrement (12 h, TNF-α vs Lev 1.0 mM): ns | IL-8 (PMA), p of decrement (12 h, TNF-α vs Lev 1.0 mM): ns | IP-10 (PMA), p of decrement (12 h, TNF-α vs Lev 1.0 mM): p < 0.05 | MCP-1 (PMA), p of decrement (12 h, TNF-α vs Lev 1.0 mM): ns | MIP-1β (PMA), p of decrement (12 h, TNF-α vs Lev 1.0 mM): ns | RANTES (PMA), p of decrement (12 h, TNF-α vs Lev 1.0 mM): ns | VEGF (PMA), p of decrement (12 h, TNF-α vs Lev 1.0 mM): p < 0.05 | Fractalkine (PMA), p of decrement (12 h, TNF-α vs Lev 2.3 mM): ns | IL-1ra (PMA), p of decrement (12 h, TNF-α vs Lev 2.3 mM): ns | IL-1α (PMA), p of decrement (12 h, TNF-α vs Lev 2.3 mM): ns | IL-1β (PMA), p of decrement (12 h, TNF-α vs Lev 2.3 mM): ns | IL-5 (PMA), p of decrement (12 h, TNF-α vs Lev 2.3 mM): ns | IL-7 (PMA), p of decrement (12 h, TNF-α vs Lev 2.3 mM): ns | IL-8 (PMA), p of decrement (12 h, TNF-α vs Lev 2.3 mM): ns | IP-10 (PMA), p of decrement (12 h, TNF-α vs Lev 2.3 mM): ns | MCP-1 (PMA), p of decrement (12 h, TNF-α vs Lev 2.3 mM): ns | MIP-1β (PMA), p of decrement (12 h, TNF-α vs Lev 2.3 mM): ns | RANTES (PMA), p of decrement (12 h, TNF-α vs Lev 2.3 mM): ns | VEGF (PMA), p of decrement (12 h, TNF-α vs Lev 2.3 mM): p < 0.01 | MIP-1α (PMA), change of secretion (12 h, TNF-α vs Lev 0.1-2.3 mM): concentration dependent increase of | MIP-1α (PMA), p of increase (12 h, TNF-α vs Lev 0.1-2.3 mM): cytokine secretion p < 0.001 | Fractalkine (PMA), p of decrement [5]: Increase | G-CSF (PMA), p of decrement [5]: Increase | GM-CSF (PMA), p of decrement [5]: ns | IL-1ra (PMA), p of decrement [5]: Increase | IL-1α (PMA), p of decrement [5]: Increase | IL-1β (PMA), p of decrement [5]: ns | IL-5 (PMA), p of decrement [5]: ns | IL-6 (PMA), p of decrement [5]: ns | IL-7 (PMA), p of decrement [5]: Increase | IL-8 (PMA), p of decrement [5]: Increase | IL-10 (PMA), p of decrement [5]: ns | IL-12p40 (PMA), p of decrement [5]: P < 0.01 | IP-10 (PMA), p of decrement [5]: ns | MCP-1 (PMA), p of decrement [5]: Increase | MIP-1α (PMA), p of decrement [5]: Increase | MIP-1β (PMA), p of decrement [5]: Increase | RANTES (PMA), p of decrement [5]: Increase | TGF-α (PMA), p of decrement [5]: ns | VEGF (PMA), p of decrement [5]: P < 0.001 | Fractalkine (PMA), p of decrement [6]: ns | G-CSF (PMA), p of decrement [6]: ns | GM-CSF (PMA), p of decrement [6]: ns | IL-1ra (PMA), p of decrement [6]: Increase | IL-1α (PMA), p of decrement [6]: Increase | IL-1β (PMA), p of decrement [6]: ns | IL-5 (PMA), p of decrement [6]: ns | IL-6 (PMA), p of decrement [6]: ns | IL-7 (PMA), p of decrement [6]: ns | IL-8 (PMA), p of decrement [6]: Increase | IL-10 (PMA), p of decrement [6]: ns
